The values below come from patent US10772931B2, “Collagen binding synthetic peptidoglycans for treatment of endothelial dysfunction” (Purdue Research Foundation, priority 2014, dated 2020).

The test system of series [1] is Human aortic endothelial cells (EC). As to the kind of experiment: EC proliferation (Hoescht 33342 nuclei stain). The format is cell-based. The conditions noted are these: PDGF alone (10 ng/mL), 24 hrs. The method, then: (§1) Human aortic endothelial cells (EC, Invitrogen) were cultured in Media 200 (M200, Invitrogen), supplemented with (all from Invitrogen) 2% fetal bovine serum (FBS), 1 μg/mL hydrocortisone, 10 ng/mL epidermal growth factor (EGF), 3 ng/mL basic fibroblast growth factor (FGF), and 10 μg/mL heparin. Unless otherwise noted, cells were initially seeded at 3×10^5 cells/cm^2 in Ibidi angiogenesis μ-slide (Ibidi) and allowed to proliferate for 24 hrs to establish a confluent monolayer, prior to the application of treatments to the EC cultures. Cells were used between passage numbers 3 and 8 for all assays and maintained at 37° C. with 5% CO2.
Cultures were incubated in the presence of DS-SILY20 with or without 10 ng/mL PDGF for 24 hrs. Cells were nuclei stained with Hoescht 33342 and […] to determine the effect of DS-SILY20 and PDGF on cell proliferation.

The test system of another series is PDGF receptor β (PDGFRβ). As to the kind of experiment: PDGFRβ phosphorylation in ECs (sandwich ELISA). Conditions: EC monolayers, PDGF treatment alone (10 ng/mL). In kind it is cell-based, human. How it is done:
Cells were incubated in the presence of DS-SILY20 with and without 10 ng/mL PDGF for 60 mins prior to washing with ice cold TBS and […] solubilized in lysis buffer (1% NP-40 Alternative, 20 mM Tris, 137 mM NaCl, 10% glycerol, 2 mM EDTA, 1 mM activated sodium orthovanadate, 10 μg/mL Aprotinin, and 10 μg/mL Leupeptin). Lysates were processed at 4° C. for 30 mins prior to centrifugation for 5 mins at 2000×g to remove membrane components. Sandwich ELISAs (all from R&D systems) were utilized to measure total PDGF receptor β (PDGFRβ) and total phosphotyrosine PDGFRβ. All assays were performed following the manufacturer's protocol.

Series [2] concerns thrombomodulin. As to the kind of experiment: Thrombomodulin production, hyperplastic co-cultures. In kind it is cell-based, human. Conditions: PDGF alone. How it is done:
(§2) To better mimic the physiology of the vessel wall and further investigate the effects of therapeutics on ECs in a biologically relevant manner, two EC-SMC co-culture models, designed to mimic either healthy or diseased vasculature, were established. ECs were cultured as stated previously. Human coronary artery smooth muscle cells (SMC, Invitrogen) were cultured in Media 231 (M231, Invitrogen), supplemented with (all from Invitrogen) 4.9% FBS, 2 ng/mL FGF, […], 5 ng/mL heparin, 5 μg/mL insulin, and 0.2 μg/mL bovine serum albumin. SMCs were seeded at 5×10^4 cells/cm^2 in Ibidi angiogenesis μ-slide and allowed to proliferate for 24 hrs to allow the formation of multilayered cell constructs. Media was removed and cultures were treated either with proliferative media, as described above, or contractile media to induce a quiescent phenotype, for 24 hrs. […]
(§3) Following treatment with DS-SILY20 with or without 10 ng/mL PDGF for 24 hrs, cells were washed twice with ice cold PBS and solubilized in lysis buffer (9 M urea, 4% CHAPS, and phosphatase inhibitor cocktail-1 in Millipore water). […] A BCA assay protein kit (Pierce) was used to quantify total protein. […] After washing three times with PBS with 0.05% Tween-20, 2× Read buffer was added to the plate and imaged using a Sector Imager 2400A. Data were analyzed using the MSD Discovery Workbench Software.

Series [3] deals with E-selectin. As to the kind of experiment: E-selectin production in EC monolayers (Vascular Injury Marker I kit). In kind it is cell-based, human. The conditions noted are these: 10 ng/mL PDGF alone. The method, then: as §1
(§4) Following treatment with DS-SILY20 with or without 10 ng/mL PDGF for 24 hrs, cells were washed twice with ice cold PBS and solubilized in lysis buffer (9 M urea, 4% CHAPS, and phosphatase inhibitor cocktail-1 in Millipore water). Lysates were processed at 4° C. for 30 mins prior to centrifugation for 20 mins at 18,000×g to remove membrane components. A BCA assay protein kit (Pierce) was used to quantify total protein. […] After washing three times with PBS with 0.05% Tween-20, 2× Read buffer was added to the plate and imaged using a Sector Imager 2400A. Data were analyzed using the MSD Discovery Workbench Software.

Series [4] deals with interleukin-6 (IL-6). As to the kind of experiment: IL-6 production, hyperplastic co-cultures. The conditions noted are these: 10 ng/mL PDGF alone. In kind it is cell-based, human. How it is done: as §2
(§5) Cells were incubated in the presence of DS-SILY20 with or without 10 ng/mL PDGF for 24 hrs. […] After washing three times with PBS with 0.05% Tween-20, 2× read buffer was added to the plate and imaged using a Sector Imager 2400A (Meso Scale Discovery). […] Data were analyzed using the MSD Discovery Workbench Software.

The test system of series [5] is quiescent EC-SMC co-cultures. As to the kind of experiment: Metabolic activity (MTS), quiescent EC-SMC co-cultures. The conditions noted are these: PDGF stimulation alone. In kind it is cell-based, human. How it is done: as §2
(§6) Cultures were incubated in the presence of 0, 0.01, 0.1, 1, or 10 μM DS-SILY20, with and without 10 ng/mL PDGF, for 24 hrs. The metabolic activity of the cells was determined using the CellTiter 96 AQueous One Solution Cell Proliferation Assay (Promega). […] The media containing MTS was then transferred into a 96-well plate and absorbance at 490 nm was measured.

Series [6] concerns hyperplastic EC-SMC co-cultures. Nature of the series: Metabolic activity (MTS), hyperplastic EC-SMC co-cultures. Conditions: PDGF stimulation alone. In kind it is cell-based, human. How it is done: as §2, §6
Series [7] deals with Human aortic endothelial cells (EC). Nature of the series: Metabolic activity (CellTiter 96 AQueous One, MTS), EC monolayers. In kind it is cell-based. The conditions noted are these: 10 ng/mL PDGF alone, 24 hrs. The method, then:
as §1
Cultures were incubated in the presence of 0, 0.01, 0.1, 1, or 10 μM DS-SILY20, with and without 10 ng/mL PDGF, for 24 hrs. The metabolic activity of the cells was determined using the CellTiter 96 AQueous One Solution Cell Proliferation Assay (Promega). Briefly, media was mixed with 3-(4,5-dimethylthiazol-2-yl)-5-(3-carboxymethoxyphenyl)-2-(4-sulfophenyl)-2H-tetrazolium, inner salt (MTS) and cultures were re-incubated for 2 hrs at 37° C. with 5% CO2. The media containing MTS was then transferred into a 96-well plate and absorbance at 490 nm was measured.

Series [8] relates to E-selectin. Nature of the series: E-selectin production, quiescent co-cultures. Conditions: PDGF alone. The format is cell-based, human. How it is done: as §2, §3
In series [9] the test system is P-selectin. As to the kind of experiment: P-selectin production, quiescent co-cultures. The format is cell-based, human. Conditions: PDGF alone. The method, then: as §2, §3
For series [10], the system named is interferon-γ (IFN-γ). Nature of the series: IFN-γ production, quiescent co-cultures. The format is cell-based, human. Conditions: 10 ng/mL PDGF alone. How it is done: as §2, §5
Series [11] has as its system Human aortic endothelial cells (EC). Nature of the series: EC migration on collagen (Oris Cell Migration Kit). The format is cell-based. Conditions: PDGF stimulation alone (10 ng/mL), 48 hrs. The method, then:
Fibrillar collagen was coated in wells of 96-well Oris Cell Migration Kit (Platypus Technologies, Madison). Stoppers were inserted into the plate to block an inner circular portion of the well. ECs were seeded at 5×10^3 cells/well and grown to confluence in the outer portion of the well. After 48 hrs, the stoppers in the wells were removed and ECs were stained with cell tracker green (Invitrogen). To determine the effects of treatments on migration alone, ECs were dosed with 25 μg/mL mitomycin C (Sigma) for 30 mins to inhibit proliferation. Various DS-SILY20 concentrations, solubilized in M200+LSGS, were then incubated on the exposed collagen surface in the inner portion of the well for 15 min at 37° C. Unbound DS-SILY20 was rinsed from the surface and cell media, with or without 10 ng/mL PDGF, was returned to the wells. ECs were allowed to migrate from the outer to the inner portion of the wells for 48 hrs. At 48 hrs, fluorescence measurements of the center of each well were measured using a mask provided with the migration kit such that only the treated inner circular portion of the well was measured.

In series [12] the test system is tumor necrosis factor-α (TNF-α). As to the kind of experiment: TNF-α production, hyperplastic co-cultures. In kind it is cell-based, human. Conditions: 10 ng/mL PDGF alone. The method, then:
as §2, §5

Series [13] concerns P-selectin. Nature of the series: P-selectin production, hyperplastic co-cultures. The format is cell-based, human. The conditions noted are these: PDGF alone. The method, then:
as §2, §3

In series [14] the test system is tumor necrosis factor-α (TNF-α). Nature of the series: TNF-α production, quiescent co-cultures. In kind it is cell-based, human. Conditions: 10 ng/mL PDGF alone. How it is done:
as §2, §5

In another series the test system is p38 MAPK (p38). Nature of the series: p38 MAPK phosphorylation in EC monolayers. The format is cell-based, human. Conditions: PDGF alone. How it is done:
(§7) The phosphorylation of mitogen-activated protein kinases (MAPK), including extracellular signal-related kinase (ERK) and p38 MAPK (p38), was examined. Cells were incubated in the presence of DS-SILY20 with or without 10 ng/mL PDGF for […] prior to washing with ice cold tris buffered saline (TBS) and solubilized in lysis buffer (150 mM NaCl, 20 mM Tris, 1 mM EDTA, 1 mM EGTA, 1% Triton-X-100, plus protease inhibitors and phosphatase inhibitors). Lysates were processed at 4° C. for 30 mins prior to centrifugation for 20 mins at 18,000×g to remove membrane components. Phospho-p38 (Thr180/Tyr182) and phospho-ERK-1/2 (Thr/Tyr: 202/204; 185/187) levels were evaluated using the MAP Kinase Whole Cell Lysate kit (Meso Scale Discovery); Total p38 and total ERK-1/2 were determined via MAP Kinase (Total Protein) Whole Cell Lysate Kit (Meso Scale Discovery), according to manufacturer's instructions. Briefly, plates were warmed to room temperature and incubated with 25 μL of samples for 3 hrs at room temperature with vigorous shaking. Following gentle rinsing of the wells, the detection antibody was then added and incubated for 1 hr at room temperature with vigorous shaking. After washing three times with TBS, 2× read buffer was added to the plate and imaged using a Sector Imager 2400A. Data were analyzed using the MSD Discovery Workbench Software. […]

For series [15], the system named is thrombomodulin. As to the kind of experiment: Thrombomodulin production, quiescent co-cultures. The format is cell-based, human. The conditions noted are these: PDGF alone. How it is done: as §2, §3
Series [16] has as its system thrombomodulin. Nature of the series: Thrombomodulin production in EC monolayers (Vascular Injury Marker I kit). The format is cell-based, human. The conditions noted are these: PDGF alone. The method, then: as §1, §4
Series [17] has as its system E-selectin. Nature of the series: E-selectin production, hyperplastic co-cultures. The format is cell-based, human. Conditions: PDGF alone. How it is done: as §2, §3
The subject of series [18] is interleukin-6 (IL-6). Nature of the series: IL-6 expression in EC monolayers (Pro-Inflammatory I kit). The format is cell-based, human. The conditions noted are these: 10 ng/mL PDGF alone, 24 hrs. How it is done:
as §1
Cells were incubated in the presence of DS-SILY20 with or without 10 ng/mL PDGF for 24 hrs. Media was removed from the cultures and a Pro-Inflammatory I kit (Meso Scale Discovery) was used to analyze cytokine production from EC monolayers, hyperplastic co-cultures, and quiescent co-cultures according to manufacturer's instructions. Briefly, plates were warmed to room temperature and incubated with 25 μL of samples and standards for 2 hrs at room temperature with vigorous shaking. […] After washing three times with PBS with 0.05% Tween-20, 2× read buffer was added to the plate and imaged using a Sector Imager 2400A (Meso Scale Discovery). […] Data were analyzed using the MSD Discovery Workbench Software.

In a further series the test system is ERK-1/2. As to the kind of experiment: ERK-1/2 phosphorylation in EC monolayers. In kind it is cell-based, human. Conditions: 10 ng/mL PDGF alone, 10 mins. How it is done:
as §7

In series [19] the test system is P-selectin. As to the kind of experiment: P-selectin production in EC monolayers (Vascular Injury Marker I kit). In kind it is cell-based, human. The conditions noted are these: PDGF alone. How it is done:
as §1, §4

Series [20] concerns interferon-γ (IFN-γ). Nature of the series: IFN-γ production, hyperplastic co-cultures. Conditions: 10 ng/mL PDGF alone. The format is cell-based, human. How it is done:
as §2, §5

In the case of platelet-derived growth factor [PDGF], the EC proliferation result in series [1] is recorded as “significantly increased”. The phospho-PDGFRβ levels result with PDGF receptor β (PDGFRβ) was “significantly increased”. The thrombomodulin production result in the series with thrombomodulin [2] and in the series on thrombomodulin [15] was “significantly increased” throughout. Further, in the series on E-selectin [3], the “E-selectin production vs no treatment controls” value was “did not alter”. In addition, the “production of IL-6 vs no treatment controls” value with interleukin-6 (IL-6) [4] is on record as “significantly increased”. Further, the metabolic activity result in series [5] and in [6] was “not impacted” in each case. Further, the “metabolic activity of ECs” value in series [7] was “did not influence”. The E-selectin expression entry in the series with E-selectin [8] and with E-selectin [17] was “did not stimulate” throughout. Besides, the P-selectin production result with P-selectin [9] and in the series on P-selectin [13] was “significantly increased” in each case. Besides, the “production of IFN-γ vs no treatment controls” value in the series on interferon-γ (IFN-γ) [10] and with interferon-γ (IFN-γ) [20] was “significantly increased” in each case. For the same substance, in series [11], the “enhancement of EC migration” value was found to be 40.3%. The “production of TNF-α vs no treatment controls” value in [12] and in series [14] was “significantly increased” each time. For the same substance, the “phosphorylation of p38” value in the series on p38 MAPK (p38) is recorded as “did not alter”. For the same substance, the thrombomodulin expression entry with thrombomodulin [16] is listed as “induced”. The “IL-6 production vs no treatment controls” value in the series on interleukin-6 (IL-6) [18] is recorded as “did not alter”. In the series on ERK-1/2, the “ERK-1/2 phosphorylation vs no treatment controls” value was “increased”. Also, the P-selectin expression entry in the series with P-selectin [19] is “induced”.
